Some test systems named below: U251 CNS; A549 NSCLC; SF-295 CNS; NCI-H522 lung; SW-620 colon; OVCAR-5 ovarian; HOP-92 NSCLC; SF-268 CNS; TK-10 renal; CAKI-1 renal.
Assay in all cases: inhibition of tumour cell growth, NCI panel, 48 h

Values joined by “and” are separate entries in the source; they are usually repeats but may differ in a detail not shown here. Equal entries are not always repeated.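 96-well plates; 48 h exposure; 5 concentrations. Endpoints by linear interpolation between flanking doses. Not reached: highest tested concentration assigned. Abbreviation: GI50, concentration required for 50% inhibition of growth. At the TGI there is no net growth.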

With `C=CC(=O)NCc1cccc(Nc2ncc(Br)c(NCCCNC(=O)C3CCC3)n2)c1`, the GI50 was 0.665 µM and 0.591 µM in the test with U251 CNS; 1.49 µM and 0.901 µM in the test on A549 NSCLC; 1.1 µM and 1.32 µM in the test with SF-295 CNS; 0.661 µM and 1.15 µM in the test on SW-620 colon; 0.709 µM and 2.56 µM with OVCAR-5 ovarian; 0.637 µM and 0.596 µM in the test on HOP-92 NSCLC. For the same compound, the GI50 was 0.297 µM and 0.296 µM in the test with SF-268 CNS; 0.41 µM and 1.86 µM in the test on TK-10 renal; 0.279 µM and 0.262 µM in the test with CAKI-1 renal. Moreover, the TGI is 12.5 µM and 5.94 µM in the test on U251 CNS; 12.5 µM and 11.6 µM with A549 NSCLC; 8.36 µM and 16.8 µM in the test on SF-295 CNS; 12.2 µM and 5.52 µM in the test with NCI-H522 lung; 12.5 µM and 11.7 µM with SW-620 colon; 12.5 µM and 15.6 µM in the test on OVCAR-5 ovarian. Besides, the TGI with HOP-92 NSCLC is 5.21 µM and 16.4 µM; in the test on SF-268 CNS, 2.57 µM and 4.07 µM; with TK-10 renal it was 4.21 µM and 11.6 µM; in the test with CAKI-1 renal it was 1.45 µM and 1.48 µM.

As to `Cc1cccc2c1N(C(=O)/C=C\C(=O)O)C(c1c(C)[nH]c3ccccc13)C2` (centres undefined), the TGI is greater than 10 µM with U251 CNS; greater than 100 µM in the test on A549 NSCLC; greater than 100 µM in the test on SF-295 CNS; 46.3 µM in the test with NCI-H522 lung; 79.3 µM with SW-620 colon; greater than 100 µM in the test on OVCAR-5 ovarian. The TGI with HOP-92 NSCLC is 82.4 µM; with SF-268 CNS it was greater than 10 µM; with TK-10 renal it was greater than 100 µM; in the test with CAKI-1 renal, greater than 100 µM.

The values above are taken from PubChem BioAssay (NCI).
